Results: patent publication US7150880B2, “Compositions containing creatine and creatinine and a methyl xanthine” (The Original Creatine Patent Co. Ltd., priority 1996, dated 2006)
Read-outs that look alike come from different tables or passages of the source.

Tests used:
[1] = Vandeberg et al 1996 J. Appl. Physiology 80; cited from earlier work
[2] = human body; cited from earlier work
[3] = ingestion of 20 to 30 g per day for several days; cited from earlier work
[4] = Mole:mole creatinine to creatine ratios required for stability at 2, 22 and 39° C. over pH 3.8 to 8.25 (Example 5); settings: for time to reach stability: starting ratios close to equilibrium
Experimental: Using solutions from 1. above the following solutions were prepared at room temperature:
Triplicate samples were prepared.
The samples were capped and heat sterilized for 30 minutes at 90° C.
One set of samples was stored at 2° C., another set at 22° C. and the final set stored at 39°.

[5] = Flavored drink of creatine plus creatinine formed by heating: stability at 22° C. and solubility at 3° C. (Example 4); format: physicochemical; settings: Example 4 drink at 3° C.
Experimental: The solution was cooled to room temperature.
In addition, the solution contained 15 percent Aloe Vera juice, flavoring and dextrose to sweeten.
Solutions from steps 1 and 2 were then mixed together and heated at 90° C. for 30 minutes to sterilize the mixture and then placed in a glass or plastic bottle and stored at 22° C.

[6] = not given; remark: listed apart in the source

Cn1c(=O)c2c(ncn2C)n(C)c1=O [caffeine]
effect on ergogenic action of muscle creatine loading [1]: counteracted the ergogenic action of muscle creatine loading
half life of ingested caffeine [2]: 5 to 6 h

CN(CC(=O)O)C(=N)N.O [creatine monohydrate]
increase in human skeletal muscle total creatine content [3]: greater than 20%
increase between weeks 5 and 6 as creatine monohydrate ([4]; 39° C.): 0.113 g per litre

CN(CC(=O)O)C(=N)N [creatine]
precipitation in refrigerator [5]: did not precipitate out
period remaining creatine stable after heating (pH's 3 and 4, after 30 minutes at 90° C., 22° C.): at least 95 days
stability of creatine with sufficient creatinine (pH's 5, 6 and 7, creatinine:creatine monohydrate 1:1, heated 30 minutes at 90° C.): exceptionally stable
loss of creatine during the heating period (pH's 6 and 7, 90° C. 30 minutes, creatinine 1:1 w/w): no loss of creatine
time to reach equilibrium ([6]; solution of low pH, composed initially of just creatine, 22° C. (FIG. 2)): up to 8 weeks
time to reach stability ([6]; starting with creatine and no creatinine, 22° C.): ≥ 4 weeks
mean change in creatine concentration between weeks 5 and 6 ([4]; 39° C., mean (SD)): +0.76 (SD 1.3) mmol/l
percentage change from weeks 5 and 6 ([4]; 39° C., mean (SD)): 3.1 (3.8) %
time to reach stability ([4]; incubated at 39° C.): < 5 weeks
time to reach stability ([4]; incubated between 2 and 39° C.): ≤ 6 weeks
